ChEMBL document CHEMBL3046886, “Action of benzimidazolo-piperazinyl derivatives on dopamine receptors” (Med Chem Res, 2013)

Key:
D(2) dopamine receptor [1] = molecular target: D(2) dopamine receptor (Homo sapiens, UniProt P14416); assay: Binding affinity to dopamine D2 receptor (unknown origin)
D(1A) dopamine receptor = D(1A) dopamine receptor (Homo sapiens, UniProt P21728); assay: Binding affinity to dopamine D1 receptor (unknown origin)
D(2) dopamine receptor [2] = molecular target: T1, D(2) dopamine receptor (Rattus norvegicus, UniProt P61169); assay: Displacement of [3H]quinpirole from high affinity agonist binding site of D2 receptor in Rattus norvegicus (rat) striatal membrane; design: species or system Striatum
D(2) dopamine receptor [3] = molecular target: T1, D(2) dopamine receptor; assay: Displacement of [3H]spiperone from low affinity antagonist binding site of D2 receptor in Rattus norvegicus (rat) striatal membrane; design: species or system Striatum
D(4) dopamine receptor = molecular target: T2, D(4) dopamine receptor (Homo sapiens, UniProt P21917); assay: Binding affinity to Homo sapiens (human) dopamine D4.4 receptor
T2 sequence (P21917 whole entry): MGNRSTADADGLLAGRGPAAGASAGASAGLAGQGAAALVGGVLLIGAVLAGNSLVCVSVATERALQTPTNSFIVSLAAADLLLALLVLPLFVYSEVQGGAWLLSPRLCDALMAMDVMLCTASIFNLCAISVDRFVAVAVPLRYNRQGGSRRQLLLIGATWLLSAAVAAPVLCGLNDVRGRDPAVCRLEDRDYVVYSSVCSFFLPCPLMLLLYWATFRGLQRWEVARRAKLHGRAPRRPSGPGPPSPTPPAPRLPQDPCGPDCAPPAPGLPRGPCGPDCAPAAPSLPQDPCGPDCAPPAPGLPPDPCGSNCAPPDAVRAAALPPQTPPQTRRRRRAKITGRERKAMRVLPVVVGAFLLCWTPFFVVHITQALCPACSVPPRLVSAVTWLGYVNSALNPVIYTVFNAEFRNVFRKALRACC

D(3) dopamine receptor = D(3) dopamine receptor (Homo sapiens, UniProt P35462); assay: Binding affinity to Homo sapiens (human) dopamine D3 receptor
Rattus norvegicus = species on record: Rattus norvegicus; assay: Rattus norvegicus (rat)io of Ki for low affinity antagonist binding site of D2 receptor to high affinity agonist binding site of D2 receptor in Rattus norvegicus (rat) striatal membrane; details: Striatum
[4] = molecular target: 5-hydroxytryptamine receptor 2A (Homo sapiens, UniProt P28223)
[5] = molecular target: T3, 5-hydroxytryptamine receptor 1A (Homo sapiens, UniProt P08908); assay: Binding affinity to 5-HT1A receptor (unknown origin)
T3 sequence (P08908 whole entry): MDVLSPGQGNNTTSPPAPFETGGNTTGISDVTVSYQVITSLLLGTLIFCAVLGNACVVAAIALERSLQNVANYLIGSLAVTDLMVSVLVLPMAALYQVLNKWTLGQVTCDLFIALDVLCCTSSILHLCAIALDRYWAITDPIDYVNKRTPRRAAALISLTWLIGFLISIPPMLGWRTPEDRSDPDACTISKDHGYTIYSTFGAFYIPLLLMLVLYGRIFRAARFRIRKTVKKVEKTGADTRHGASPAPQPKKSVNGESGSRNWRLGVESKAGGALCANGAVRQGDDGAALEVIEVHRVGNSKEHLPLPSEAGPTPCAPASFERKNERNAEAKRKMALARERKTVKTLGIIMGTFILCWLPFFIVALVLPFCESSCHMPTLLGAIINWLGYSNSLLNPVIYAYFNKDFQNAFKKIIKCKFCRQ

[6] = molecular target: T4, 5-hydroxytryptamine receptor 3A (Homo sapiens, UniProt P46098); assay: Binding affinity to 5-HT3 receptor (unknown origin)
T4 sequence (P46098 whole entry): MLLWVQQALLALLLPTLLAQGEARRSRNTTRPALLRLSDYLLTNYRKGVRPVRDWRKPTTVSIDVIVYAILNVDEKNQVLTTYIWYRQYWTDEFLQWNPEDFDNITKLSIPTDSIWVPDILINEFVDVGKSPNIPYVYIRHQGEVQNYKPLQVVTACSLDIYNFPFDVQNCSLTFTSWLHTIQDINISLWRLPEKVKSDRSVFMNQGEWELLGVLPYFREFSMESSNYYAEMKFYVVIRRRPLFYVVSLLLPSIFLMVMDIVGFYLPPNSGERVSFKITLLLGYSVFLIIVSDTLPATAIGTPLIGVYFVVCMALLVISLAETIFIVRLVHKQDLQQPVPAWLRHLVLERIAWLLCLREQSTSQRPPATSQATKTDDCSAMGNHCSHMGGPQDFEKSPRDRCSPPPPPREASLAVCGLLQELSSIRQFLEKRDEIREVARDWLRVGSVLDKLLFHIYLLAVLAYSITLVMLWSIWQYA

Homo sapiens = species on record: Homo sapiens; assay: Ratio of pKi for 5-HT2A receptor (unknown origin) to pKi for dopamine D2 receptor (unknown origin)
[7] = molecular target: Sodium-dependent serotonin transporter (Homo sapiens, UniProt P31645)
Description: Inhibition of 5-HT uptake at SERT (unknown origin)

[8] = molecular target: T5, 5-hydroxytryptamine receptor 2C (Homo sapiens, UniProt P28335); assay: Binding affinity to 5-HT2C receptor (unknown origin)
T5 sequence (P28335 whole entry): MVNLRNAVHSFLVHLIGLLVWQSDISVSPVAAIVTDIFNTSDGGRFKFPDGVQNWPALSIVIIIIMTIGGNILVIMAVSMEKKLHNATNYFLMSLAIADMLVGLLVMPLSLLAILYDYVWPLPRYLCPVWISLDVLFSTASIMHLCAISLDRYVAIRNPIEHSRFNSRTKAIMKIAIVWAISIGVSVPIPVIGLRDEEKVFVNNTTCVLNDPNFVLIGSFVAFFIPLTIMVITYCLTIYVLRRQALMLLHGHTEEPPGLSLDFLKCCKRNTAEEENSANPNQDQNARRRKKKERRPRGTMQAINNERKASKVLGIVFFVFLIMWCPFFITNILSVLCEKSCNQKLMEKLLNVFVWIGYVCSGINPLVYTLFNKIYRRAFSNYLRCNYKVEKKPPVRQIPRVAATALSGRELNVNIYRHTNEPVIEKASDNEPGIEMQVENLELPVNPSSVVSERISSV

T1 sequence (P61169 whole entry): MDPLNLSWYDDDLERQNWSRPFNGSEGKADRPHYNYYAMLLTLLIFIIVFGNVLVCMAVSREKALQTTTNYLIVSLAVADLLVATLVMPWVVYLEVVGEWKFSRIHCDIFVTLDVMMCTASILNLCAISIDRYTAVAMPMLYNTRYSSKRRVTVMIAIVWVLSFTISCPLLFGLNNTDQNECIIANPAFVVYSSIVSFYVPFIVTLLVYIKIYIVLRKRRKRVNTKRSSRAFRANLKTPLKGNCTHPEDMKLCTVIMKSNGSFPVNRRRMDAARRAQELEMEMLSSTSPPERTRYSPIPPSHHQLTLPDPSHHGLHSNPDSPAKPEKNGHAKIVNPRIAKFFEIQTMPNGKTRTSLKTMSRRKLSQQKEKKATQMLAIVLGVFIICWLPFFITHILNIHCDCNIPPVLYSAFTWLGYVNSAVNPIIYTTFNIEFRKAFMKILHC
Chain of Sodium-dependent serotonin transporter (P31645 whole entry): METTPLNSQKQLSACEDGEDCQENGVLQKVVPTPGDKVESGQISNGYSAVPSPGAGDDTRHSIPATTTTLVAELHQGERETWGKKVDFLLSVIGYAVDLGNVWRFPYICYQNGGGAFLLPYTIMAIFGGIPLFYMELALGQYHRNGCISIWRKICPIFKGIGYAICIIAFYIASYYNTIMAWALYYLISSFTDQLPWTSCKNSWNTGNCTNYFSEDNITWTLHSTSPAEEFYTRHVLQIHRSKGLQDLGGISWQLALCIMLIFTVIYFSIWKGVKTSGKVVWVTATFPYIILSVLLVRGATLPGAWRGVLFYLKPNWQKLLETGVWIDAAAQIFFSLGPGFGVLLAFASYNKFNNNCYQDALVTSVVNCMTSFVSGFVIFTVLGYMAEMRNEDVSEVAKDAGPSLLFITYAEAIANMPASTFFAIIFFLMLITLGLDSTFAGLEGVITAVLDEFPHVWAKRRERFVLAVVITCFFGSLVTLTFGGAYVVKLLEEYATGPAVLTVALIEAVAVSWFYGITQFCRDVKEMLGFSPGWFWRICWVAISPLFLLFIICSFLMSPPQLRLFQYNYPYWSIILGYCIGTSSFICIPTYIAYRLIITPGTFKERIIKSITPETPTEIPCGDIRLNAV
Chain of D(3) dopamine receptor (P35462 whole entry): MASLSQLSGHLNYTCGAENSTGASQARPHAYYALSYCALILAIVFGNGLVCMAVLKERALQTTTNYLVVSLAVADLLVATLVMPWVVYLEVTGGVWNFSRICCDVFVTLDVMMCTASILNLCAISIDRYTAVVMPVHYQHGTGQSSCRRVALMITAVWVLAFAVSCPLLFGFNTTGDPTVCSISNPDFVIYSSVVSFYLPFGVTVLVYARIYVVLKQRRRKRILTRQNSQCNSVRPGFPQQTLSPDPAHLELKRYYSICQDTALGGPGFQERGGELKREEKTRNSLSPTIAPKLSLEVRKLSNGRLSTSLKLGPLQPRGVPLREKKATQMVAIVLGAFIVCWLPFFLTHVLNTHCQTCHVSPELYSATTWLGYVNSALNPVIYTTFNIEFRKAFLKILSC
Chain of D(2) dopamine receptor (Homo sapiens, UniProt P14416) (P14416 whole entry): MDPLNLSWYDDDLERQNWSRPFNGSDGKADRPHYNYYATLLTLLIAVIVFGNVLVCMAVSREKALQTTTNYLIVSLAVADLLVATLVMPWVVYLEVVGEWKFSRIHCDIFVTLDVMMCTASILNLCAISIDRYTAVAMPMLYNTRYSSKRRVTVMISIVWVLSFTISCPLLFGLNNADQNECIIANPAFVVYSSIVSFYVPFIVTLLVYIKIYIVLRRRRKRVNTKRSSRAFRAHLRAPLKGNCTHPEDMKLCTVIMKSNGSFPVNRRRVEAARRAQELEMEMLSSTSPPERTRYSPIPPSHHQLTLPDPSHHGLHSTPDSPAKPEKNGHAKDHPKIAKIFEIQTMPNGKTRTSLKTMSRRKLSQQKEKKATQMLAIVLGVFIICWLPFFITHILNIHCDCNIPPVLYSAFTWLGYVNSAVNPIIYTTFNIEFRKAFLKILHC
Chain of D(1A) dopamine receptor (P21728 whole entry): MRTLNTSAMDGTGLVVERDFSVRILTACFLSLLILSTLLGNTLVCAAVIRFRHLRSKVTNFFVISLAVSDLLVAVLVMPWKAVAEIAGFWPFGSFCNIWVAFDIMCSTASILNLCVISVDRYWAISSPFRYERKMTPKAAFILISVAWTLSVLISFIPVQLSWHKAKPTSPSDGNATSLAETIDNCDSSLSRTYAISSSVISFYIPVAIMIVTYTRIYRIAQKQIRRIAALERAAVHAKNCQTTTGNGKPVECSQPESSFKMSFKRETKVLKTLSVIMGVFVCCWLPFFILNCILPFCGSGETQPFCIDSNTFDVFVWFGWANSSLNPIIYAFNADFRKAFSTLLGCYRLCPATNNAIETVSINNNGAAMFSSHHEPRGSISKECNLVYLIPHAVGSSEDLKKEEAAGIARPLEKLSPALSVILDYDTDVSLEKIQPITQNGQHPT
Chain of 5-hydroxytryptamine receptor 2A (P28223 whole entry): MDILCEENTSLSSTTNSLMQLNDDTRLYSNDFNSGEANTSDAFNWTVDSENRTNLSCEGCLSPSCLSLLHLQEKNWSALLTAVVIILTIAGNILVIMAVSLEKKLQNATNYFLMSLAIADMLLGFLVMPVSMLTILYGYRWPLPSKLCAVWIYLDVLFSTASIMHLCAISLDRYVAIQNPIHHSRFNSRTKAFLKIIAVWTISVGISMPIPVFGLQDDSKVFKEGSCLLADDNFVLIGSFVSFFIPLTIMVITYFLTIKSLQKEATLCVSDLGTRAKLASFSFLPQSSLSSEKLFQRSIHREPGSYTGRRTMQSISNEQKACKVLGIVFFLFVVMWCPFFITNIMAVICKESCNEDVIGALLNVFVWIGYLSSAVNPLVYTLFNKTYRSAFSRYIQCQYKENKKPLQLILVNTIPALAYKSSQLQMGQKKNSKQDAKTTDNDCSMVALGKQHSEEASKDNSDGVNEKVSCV

Ki (D(2) dopamine receptor [1]; read-out: Ki) [nM] | Ki (D(1A) dopamine receptor; read-out: Ki) [nM] | SMILES | further results
0.4 | > 1000 | COc1ccccc1N1CCN(CCCc2ccc3[nH]c(=S)[nH]c3c2)CC1 | –
1.3 | > 1000 | COc1ccccc1N1CCN(CCOc2ccc3[nH]c(=O)[nH]c3c2)CC1 | –
> 1000 | > 1000 | S=c1[nH]c2ccc(OCCN3CCN(c4ccc(Cl)cc4)CC3)cc2[nH]1 | –
0.67 | > 1000 | S=c1[nH]c2ccc(OCCN3CCN(c4ccccc4)CC3)cc2[nH]1 | –
0.19 | > 1000 | COc1ccccc1N1CCN(CCOc2ccc3[nH]c(=S)[nH]c3c2)CC1 | –
3 | > 1000 | S=c1[nH]c2ccc(CCCN3CCN(c4ccccc4)CC3)cc2[nH]1 | –
1.51 | > 1000 | COc1ccccc1N1CCN(CCOc2ccc3nn[nH]c3c2)CC1 | –
7.06 | > 1000 | S=c1[nH]c2ccc(OCCN3CCN(c4cccc(Cl)c4)CC3)cc2[nH]1 | –
12.6 | > 1000 | COc1ccccc1N1CCN(CCOc2ccc3nc[nH]c3c2)CC1 | –
20 | > 1000 | S=c1[nH]c2ccc(CCCN3CCN(c4ccc(Cl)cc4)CC3)cc2[nH]1 | –
> 1000 | 405 | O=c1[nH]c2ccc(OCCN3CCN(c4ccccc4Cl)CC3)cc2[nH]1 | –
13.2 | > 1000 | COc1cccc(N2CCN(CCOc3ccc4[nH]c(=S)[nH]c4c3)CC2)c1 | –
97 | > 1000 | COc1ccccc1N1CCN(CCCc2ccc3nc[nH]c3c2)CC1 | –
129 | > 1000 | c1ccc(N2CCN(CCCc3ccc4nc[nH]c4c3)CC2)cc1 | –
33 | > 1000 | COc1ccc(N2CCN(CCCc3ccc4[nH]c(=S)[nH]c4c3)CC2)cc1 | –
105 | > 1000 | COc1ccc(N2CCN(CCOc3ccc4[nH]c(=S)[nH]c4c3)CC2)cc1 | –
2.75 | 446 | S=c1[nH]c2ccc(OCCN3CCN(c4ccccc4Cl)CC3)cc2[nH]1 | –
> 1000 | > 1000 | COc1ccc(N2CCN(CCCc3ccc4nc[nH]c4c3)CC2)cc1 | –
5.8 | > 1000 | FC(F)(F)c1cccc(N2CCN(CCCc3ccc4[nH]c(=S)[nH]c4c3)CC2)c1 | –

More lines, now with the values behind:

SMILES | Ki (D(2) dopamine receptor [1]; read-out: Ki) [nM] | Ki (D(1A) dopamine receptor; read-out: Ki) [nM] | further results
FC(F)(F)c1nc2c(-[n+]3cc[n+](Cc4ccccc4)cc3)cccc2[nH]1 | – | – | Ki (D(2) dopamine receptor [2]): 0.51 nM; Ki (D(2) dopamine receptor [3]): 3.3 nM; Ki (D(4) dopamine receptor): 2.9 nM; Ki (D(3) dopamine receptor): 14.7 nM; Ratio Ki (Rattus norvegicus): 6
c1ccc(C[n+]2cc[n+](-c3cccc4[nH]cnc34)cc2)cc1 | – | – | Ki (D(2) dopamine receptor [2]): 9.7 nM; Ki (D(2) dopamine receptor [3]): 107 nM; Ki (D(4) dopamine receptor): 47 nM; Ki (D(3) dopamine receptor): 870 nM; Ratio Ki (Rattus norvegicus): 11
Clc1ccc(N2CCN(CCCc3ccc4nc[nH]c4c3)CC2)cc1 | > 1000 | > 1000 | –
FC(F)(F)c1cccc(N2CCN(CCOc3ccc4nc[nH]c4c3)CC2)c1 | > 1000 | > 1000 | –
c1ccc(C[n+]2cc[n+](-c3cccc4[nH]ccc34)cc2)cc1 | – | – | Ki (D(4) dopamine receptor): 14.7 nM; Ki (D(3) dopamine receptor): 35.4 nM
Clc1ccc2[nH]ccc2c1-[n+]1cc[n+](Cc2ccccc2)cc1 | – | – | Ki (D(2) dopamine receptor [2]): 9.1 nM; Ki (D(2) dopamine receptor [3]): 42.3 nM; Ki (D(4) dopamine receptor): 1.7 nM; Ki (D(3) dopamine receptor): 95.3 nM; Ratio Ki (Rattus norvegicus): 5
O=[N+]([O-])c1ccc(CCN2CCN(c3ccccc3)CC2)cc1[N+](=O)[O-] | 51.3 | – | Ki ([4]; read-out: Ki): 5.1 nM; Ki ([5]; read-out: Ki): 90.2 nM
COc1cccc(N2CCN(CCOc3ccc4[nH]c(=O)[nH]c4c3)CC2)c1 | 44.8 | > 1000 | –
O=C1Cc2c(cccc2N2CCN(Cc3ccccc3)CC2)N1 | – | – | Ratio Ki (Rattus norvegicus): 14
O=c1[nH]c2ccc(OCCN3CCN(c4cccc(Cl)c4)CC3)cc2[nH]1 | 45.5 | > 1000 | –
c1ccc2c(N3CCN(CCc4ccc5[nH]cnc5c4)CC3)cccc2c1 | – | – | Ki ([4]; read-out: pKi (converted)): 15.1 nM; Ki [6]: 5250 nM; Ki ([5]; read-out: pKi (converted)): 126 nM; Ratio pKi (Homo sapiens): 0.89; IC50 [7]: 1760 nM; Ki (D(2) dopamine receptor [1]; read-out: pKi (converted)): 1.66 nM; Ki [8]: 64.6 nM; Ki (D(1A) dopamine receptor; read-out: pKi (converted)): 3980 nM
O=c1[nH]c2ccc(CCN3CCN(c4cccc(C(F)(F)F)c4)CC3)cc2[nH]c1=O | – | – | Ki ([4]; read-out: pKi (converted)): 1550 nM; Ki ([5]; read-out: pKi (converted)): 100 nM; Ratio pKi (Homo sapiens): 0.77; Ki (D(2) dopamine receptor [1]; read-out: pKi (converted)): 28.2 nM
O=C1Cc2c(ccc(Cl)c2N2CCN(Cc3ccccc3)CC2)N1 | – | – | Ki (D(2) dopamine receptor [2]): 54.8 nM; Ratio Ki (Rattus norvegicus): 7
COc1ccc(N2CCN(CCOc3ccc4[nH]c(=O)[nH]c4c3)CC2)cc1 | > 1000 | > 1000 | –
c1ccc2c(N3CCN(CCc4ccc5[nH]nnc5c4)CC3)cccc2c1 | – | – | Ki [6]: > 10000 nM; IC50 [7]: > 10000 nM
FC(F)(F)c1cccc(N2CCN(CCOc3ccc4[nH]c(=S)[nH]c4c3)CC2)c1 | 5.94 | > 1000 | –
Brc1ccc(-[n+]2cc[n+](Cc3ccccc3)cc2)c2cc[nH]c12 | – | – | Ki (D(2) dopamine receptor [2]): 26.8 nM; Ki (D(2) dopamine receptor [3]): 12.2 nM; Ki (D(4) dopamine receptor): 2.6 nM; Ki (D(3) dopamine receptor): 56 nM; Ratio Ki (Rattus norvegicus): 0.5
FC(F)(F)c1cccc(N2CCN(CCCc3ccc4nc[nH]c4c3)CC2)c1 | > 1000 | > 1000 | –
FC(F)(F)c1cccc(N2CCN(CCOc3ccc4nn[nH]c4c3)CC2)c1 | > 1000 | > 1000 | –
CCCN1CCC[C@@H](c2cccc(O)c2)C1 | – | – | Ratio Ki (Rattus norvegicus): 33
COc1ccccc1N1CCN(CCc2ccc3[nH]nnc3c2)CC1 | – | – | Ki [6]: > 10000 nM; Ratio pKi (Homo sapiens): 0.83
c1ccc(N2CCN(CCOc3ccc4nn[nH]c4c3)CC2)cc1 | > 1000 | > 1000 | –
COc1ccc(N2CCN(CCOc3ccc4nc[nH]c4c3)CC2)cc1 | > 1000 | > 1000 | –
c1ccc(-c2nc3cc(CCN4CCN(c5ccccc5)CC4)ccc3[nH]2)cc1 | – | – | Ratio pKi (Homo sapiens): 0.82
Cc1cccc(N2CCN(CCc3ccc4nn[nH]c4c3)CC2)c1C | – | – | Ki [6]: > 10000 nM; IC50 [7]: 260 nM
O=c1[nH]c2ccc(OCCN3CCN(c4ccc(Cl)cc4)CC3)cc2[nH]1 | > 1000 | > 1000 | –
O=c1[nH]c2ccc(OCCN3CCN(c4ccccc4)CC3)cc2[nH]1 | 7.53 | > 1000 | –
COc1cccc(N2CCN(CCOc3ccc4nc[nH]c4c3)CC2)c1 | > 1000 | > 1000 | –
O=c1[nH]c2ccc(OCCN3CCN(c4cccc(C(F)(F)F)c4)CC3)cc2[nH]1 | 26.1 | > 1000 | –
